Experimental data as given in paper PMC10411625, “Rationally designed stapled peptides allosterically inhibit PTBP1–RNA-binding” (Chemical Science, 2023).
Numbering of substitutions follows the chain as printed. {FAM} = fluorescein (FAM) label

Key:
[1] = target: T1, PTBP1 RRM1 (MBP-RRM1, G41-A163) (Homo sapiens, UniProt P26599); experiment: Fluorescence polarization binding of FAM-RNA to PTBP1 RRM1; details: FP, 5 nM FAM-labelled RNA, 20 mM sodium phosphate pH 8.0, 50 mM NaCl, 0.001% Tween20, 20 °C, 30 min
T1 construct: (G41-A163); His tag; made in house; host or cells: E. coli BL21 DE3 RIL
T1 sequence (P26599 41-163): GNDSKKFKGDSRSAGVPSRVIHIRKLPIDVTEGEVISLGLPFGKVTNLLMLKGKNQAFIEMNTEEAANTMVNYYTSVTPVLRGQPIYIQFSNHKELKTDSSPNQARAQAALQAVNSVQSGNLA
From the text: (§1) To confirm the role of the α3-helix described by the Allain group we performed fluorescence polarization (FP) experiments with various PTBP1 protein constructs and two RNA sequences.[25] The first set of proteins contained either the single RRM1, RRM1 lacking the α3-helix (RRM1Δα3) or RRM1–L151G (Fig. 1A and C). The L151G mutation was previously described by the Allain group to break the fold of the helix and reduce RNA-binding 2.3 fold as measured by ITC.[25] As tracer in the FP experiments, we used a FAM-labelled short RNA (RNA-1) with a single PTBP1 binding site (UCUU) which can accommodate a single RRM (Fig. 1B). […] The L151G mutation reduced binding 3.6-fold which is somewhat higher than what was observed previously but in the same range. […] To see whether the effect of the helix was also present in larger constructs we measured the affinity of RRM1 and 2 combined (RRM12) as well as the RRM12–L151G mutant. […]
(§2) size exclusion chromatography (Superdex 75 16/60 or 26/60) with SEC buffer (50 mM Tris, 200 mM NaCl). Protein homogeneity was assessed by the size exclusion chromatogram and purity was checked by SDS-PAGE analysis to be >= 90%.
(§3) The gene encoding for SRSF1-RRM12 (1-195) was subcloned into pOPIN-His expression vector and expressed in E. coli BL21 (DE3). […]
(§4) Fluorescence polarization assay with PTBP1 […]

[2] = target: T2, PTBP1 RRM1Δα3 (RRM1 lacking the α3-helix) (Homo sapiens, UniProt P26599); experiment: Fluorescence polarization binding of FAM-RNA to PTBP1 RRM1Δα3; details: FP, 5 nM FAM-labelled RNA, 20 mM sodium phosphate pH 8.0, 50 mM NaCl, 0.001% Tween20, 20 °C, 30 min
T2 construct: (G41-S140); His tag (N); made in house; host or cells: E. coli BL21 DE3 RIL
From the text: as §1, §2, §3, §4

PTBP1 RRM1-L151G = target: T3, PTBP1 RRM1-L151G (Homo sapiens, UniProt P26599, L151G); experiment: Fluorescence polarization binding of FAM-RNA to PTBP1 RRM1-L151G
T3 construct: (G41-A163,; His tag; made in house; host or cells: E. coli BL21 DE3 RIL
From the text: as §1, §2, §3, §4

[3] = target: T4, PTBP1 RRM2 (MBP-RRM2, M177-D284) (Homo sapiens, UniProt P26599); experiment: Fluorescence polarization binding of FAM-RNA to PTBP1 RRM2; details: FP, 5 nM FAM-labelled RNA, 20 mM sodium phosphate pH 8.0, 50 mM NaCl, 0.001% Tween20, 20 °C, 30 min
T4 construct: (M177- D284); His tag; made in house; host or cells: E. coli BL21 DE3 RIL
From the text: as §1, §2, §3, §4

PTBP1 RRM12 (P57-V265) = target: T5, PTBP1 RRM12 (P57-V265) (Homo sapiens, UniProt P26599); experiment: Fluorescence polarization binding of FAM-RNA to PTBP1 RRM12; details: FP, 5 nM FAM-labelled RNA, 20 mM sodium phosphate pH 8.0, 50 mM NaCl, 0.001% Tween20, 20 °C, 30 min
T5 construct: (P57-V265); MBP (from pMAL vector); His tag; made in house; host or cells: E. coli BL21 DE3 RIL
T5 sequence (P26599 57-265): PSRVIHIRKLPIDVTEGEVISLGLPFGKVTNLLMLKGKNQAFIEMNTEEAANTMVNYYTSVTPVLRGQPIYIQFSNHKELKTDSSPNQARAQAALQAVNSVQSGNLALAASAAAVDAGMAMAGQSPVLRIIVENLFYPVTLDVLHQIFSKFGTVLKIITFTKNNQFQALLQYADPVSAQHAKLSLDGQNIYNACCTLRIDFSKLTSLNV
From the text: as §1, §2, §3, §4

PTBP1 RRM12-L151G = target: T6, PTBP1 RRM12-L151G (Homo sapiens, UniProt P26599, L151G); experiment: Fluorescence polarization binding of FAM-RNA to PTBP1 RRM12-L151G
T6 construct: (P57-V265); MBP (from pMAL vector); His tag; made in house; host or cells: E. coli BL21 DE3 RIL
T6 sequence (P26599 57-265 L151G): T5 sequence (P26599 57-265) with L95G
From the text: as §1, §2, §3, §4

[4] = FP, 5 nM FAM-labelled RNA, 20 mM sodium phosphate pH 8.0, 50 mM NaCl, 0.001% Tween20, 20 °C, 30 min

T3 sequence (P26599 41-163 L151G): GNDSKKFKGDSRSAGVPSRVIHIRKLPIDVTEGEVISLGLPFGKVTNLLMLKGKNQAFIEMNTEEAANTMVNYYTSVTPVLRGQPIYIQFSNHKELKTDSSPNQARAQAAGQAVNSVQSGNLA
T4 sequence (P26599 177-284): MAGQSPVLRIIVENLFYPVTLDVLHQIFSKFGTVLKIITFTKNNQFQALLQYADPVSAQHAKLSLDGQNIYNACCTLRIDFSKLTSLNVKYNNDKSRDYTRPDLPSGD

## RNA-2: FAM-AUUUUUCCAUCUUUGUAUC, sequence of microRNA miR-29b-2, two poly(U) motifs (RNA, 5' {FAM}, backbone not given here)
[1]
  Kd: 90 ± 23 nM
[2]
  Kd: 6450 ± 1360 nM
PTBP1 RRM1-L151G; [4]
  Kd: 218 ± 11 nM
PTBP1 RRM1-L151G; from FP KD values
  reduction of RNA affinity by L151G mutation, RRM1-L151G versus RRM1: 2.4 fold
[3]
  Kd: 721 ± 308 nM
PTBP1 RRM12 (P57-V265)
  Kd: 17 ± 2 nM
PTBP1 RRM12-L151G; [4]
  Kd: 42 ± 1 nM
PTBP1 RRM12-L151G; from FP KD values
  reduction of RNA affinity by L151G mutation, RRM12-L151G versus RRM12: 2.5 fold
